Measurements: patent US20250295795A1, “PEPTIDE” (priority 2021, published 2025)
Entries after “also recorded” stand apart in the source; their conditions may differ. No end group written: not given here.

Assays:
HeLa cells [1] = assay: Live cell confocal microscopy: cellular uptake and intracellular distribution of Tat conjugates in HeLa cells; type: cell-based, human; conditions: HeLa cells, 60 min, post-wash
Procedure: The cellular uptake and intracellular distribution of Tat-trimers and monomeric controls was investigated by performing live cell confocal microscopy of HeLa (human, cervical cancer) and CHO (Chinese hamster, […]). Following washing, images were acquired using a Zeiss 780 confocal microscope fitted with an incubation chamber (FIG. 2). In accordance with observations that free Tat in the cytosol readily enters the nucleus and strongly binds to nucleoli,^29 homogenous staining of cytoplasm and nucleoli were considered as indicative of cells having accumulated free conjugate, not confined to endosomes, for quantification purposes. […] The uptake and intracellular distribution of tri-Tat A is similar in live Hela and CHO cells (FIG. 2b,d,e).
Following washing, images were acquired using a Zeiss 780 confocal microscope fitted with an incubation chamber. In accordance with observations that free Tat in the cytosol readily enters the nucleus and strongly binds to nucleoli,^29 homogenous staining of cytoplasm and nucleoli were considered as indicative of cells having accumulated free conjugate, not confined to endosomes, for quantification purposes. The results were compared to tri-Tat A (8) and tri-cTat B (17).
(§1) HeLa and CHO cells were cultured in DMEM supplemented with 10% FBS and penicillin/streptomycin. For post-wash experiments, Tat conjugate was added to the cells in serum free medium, cells incubated at 37° C. in an atmosphere of 5% CO2, culture medium removed at the desired time point, cells washed and transferred to the microscope for imaging. For time course or pre-wash experiments, cells were transferred to the microscope (incubation chamber at 37° C., 5% CO2) and Tat conjugate added directly to cell medium and cells imaged at desired time points. Co-delivery experiments were conducted by adding peptide trimer immediately followed by cargo into serum free medium. Samples were visualised using a Zeiss LSM 780 inverted confocal microscope fitted with a XLmultiS1 incubation chamber and Plan-Apochromat 63×/1.40 Oil DIC M27 objective. Images were analysed using ImageJ software. Digital adjustments and image processing are consistent throughout the manuscript, unless otherwise stated in the figure legend. Statistical analysis was carried out using GraphPad Prism 7 software and all data used for statistical analysis consists of measurements from distinct cells. Where applicable a parametric, unpaired, two-tailed t-test was used for statistical testing.

[2] = MTT assay of metabolic activity (cell viability); type: cell-based; conditions: human, HeLa cells, 1 μM for 60 min
Procedure: Toxicity is a concern with potent intracellular delivery agents. We used an MTT assay to measure the metabolic activity of Hela cells treated with 1 μM tri-Tat A or tri-cTat B for 60 min (FIG. 4d). […] Tri-Tat A is slightly more toxic, which is consistent with the observation that the trimer forms membrane pores (cells 84.4% viable, 4 h post-treatment; 80.2% viable, 3 days post-treatment). The favourable uptake mechanism and low toxicity of tri-cTat B lead us to investigate this agent for its potential to transport biomacromolecular cargos into cells.

CHO cells = assay: Live cell confocal microscopy: cellular uptake and intracellular distribution of Tat conjugates in CHO cells; type: cell-based, Chinese hamster; conditions: 60 min, post-wash
Procedure: The cellular uptake and intracellular distribution of Tat-trimers and monomeric controls was investigated by performing live cell confocal microscopy of HeLa (human, cervical cancer) and CHO (Chinese hamster, epithelial) cells incubated with Tat conjugates (1 μM) in serum-free DMEM (60 min). Following washing, images were acquired using a Zeiss 780 confocal microscope fitted with an incubation chamber (FIG. 2). In accordance with observations that free Tat in the cytosol readily enters the nucleus and strongly binds to nucleoli,^29 homogenous staining of cytoplasm and nucleoli were considered as indicative of cells having accumulated free conjugate, not confined to endosomes, for quantification purposes. […] The uptake and intracellular distribution of tri-Tat A is similar in live Hela and CHO cells (FIG. 2b,d,e).
as §1

HeLa cells [3] = assay: Time course of uptake in Hela cells (continuous live cell confocal microscopy, ROI profile analysis); type: cell-based, human; conditions: 1 μM
Procedure: To better understand the mechanism by which tri-Tat A and tri-cTat B enter the cytosol and the nucleus, we investigated the uptake kinetics of the conjugates during the first 15 min after their addition to Hela cells using confocal live cell microscopy. Tri-Tat A (FIG. 3a) or tri-cTat B (FIG. 3b) (1 μM) were added to the cells and images acquired from 1 min to 15 min at 60 sec intervals. The two trimers show distinct uptake patters into Hela cells; to better understand the difference in uptake kinetics, we drew cross sectional profile plots through representative cells treated with tri-Tat A (FIG. 3c) and tri-cTat B (FIG. 3d). […] To investigate whether findings in individual cells also apply to larger populations, we extended the plot profile analysis by designating regions of interest (ROI) corresponding to plasma membrane, cytosol (excluding endosomes), nucleus, and nucleoli along the cross section, using information from brightfield images.^30 Average fluorescence intensities for each ROI, at each time point, in six cells per treatment group were calculated and plotted in FIGS. 3e-3h.
as §1

HeLa cells [4] = assay: Membrane integrity / porosity: propidium iodide uptake after trimer treatment; type: cell-based, human; conditions: 1 μM trimer; 40 μM PI added 20 min after trimer
Procedure: To assess membrane integrity, 40 μM propidium iodide (PI; a cell impermeable dye), was added to Hela cells 20 min after the addition of the peptide trimer.

HeLa cells [5] = assay: Co-delivery of antibodies, antibody fragments and RFP into live Hela cells; type: cell-based, human; conditions: 1 μM peptide
Excerpt: Access to the cytosol by mechanisms that are independent of transmembrane pore formation constitutes a preferred method of co-delivery due to reduced toxicity to the cell. […] Successful delivery of Fab is indicated by homogenous distribution of AF647 signal in the cytosol and nucleus and is only observed in cells which have been transduced with tri-cTat B (FIG. 13). Time course of Fab uptake by tri-cTat B (FIG. 5c) follows a similar pattern as tri-cTat B alone (FIG. 3b, d). Tri-cTat B and Fab form large vesicle-like bodies that appear to release their contents into the cytosol of the cell; unambiguous cytosolic staining by Fab is observed from 23 min. Interaction between peptide trimer and biomacromolecule, mediated by charge-charge interactions is essential for the accumulation of both in endosomes and subsequent release and delivery of cargo into cells. Delivery of relatively β-sheet rich, neutrally charged recombinant RFP was unsuccessful (FIG. 16) due to a lack of association between tri-cTat B and cargo (FIG. 17). On the other hand, interaction diminishes the efficacy of the peptide trimer due to charge masking, emphasising the need to maintain an appropriate peptide to cargo ratio for a given macromolecule. Experiments to explore the efficacy of tri-cTat B in the presence of serum supplemented medium underline this principle; while tri-cTat B continues to function in the presence of serum, the number of transduced cells diminishes (42% (serum) vs. 61% (serum free)), but can be restored by increasing tri-cTat B concentration to 2 μM (79% (serum); FIG. 15). […] This is likely due to the larger size of antibodies and also to the observation that antibodies have a greater tendency to aggregate in the presence of tri-cTat B compared to Fab fragments. […] Finally, we investigated whether it is possible to deliver functional antibodies and antibody fragments into the cytosol and nuclei of cells. β-actin was chosen as a proof-of-principle protein because of its abundance in the cell and formation of distinctive subcellular filaments. To clearly identify actin filaments, Hela cells were transfected with red fluorescent protein fused to actin (actin-RFP) before being incubated with β-actin antibody (mouse IgG2b) or β-actin Fab fragment (mouse) conjugated to AF647 plus tri-cTat B for 30 min. After washing, cells were left for 60 min to allow IgG/Fab to bind to actin filaments. […] To enable objective quantification of co-localization between β-actin filaments and IgG/Fab fragment (white arrows), a co-localization threshold algorithm was used in selected regions of interest (ROI). Pearson's and Manders' coefficients were obtained under Costes' automatic threshold^32 and the co-localized pixels are shown as a mask of yellow pixels of constant intensity (co-localization panels). The significance of the co-localization parameters (Pearson's and Manders' coefficients) was evaluated using the confined displacement algorithm (CDA).
as §1, with “Statistical analysis was carried out using GraphPad Prism 7 software and all data used for statistical analysis consists of measurements from distinct cells. Where applicable a parametric, unpaired, two-tailed t-test was used for statistical testing.” left out

Row | Compound | cellular uptake and intracellular distribution (HeLa cells [1]; 1 μM, serum-free DMEM) | viability at 4 h, 1 µM ([2]; 4 h post-treatment) [%] | viability at 72 h, 1 µM ([2]; 3 days post-treatment) [%] | cellular uptake and intracellular distribution (CHO cells; 1 μM, serum-free DMEM) | time after which cytosolic signal increases rapidly (HeLa cells [3]) [min] | cytosolic signal relative to tri-cTat B (factor) (HeLa cells [3]; at 15 min, p<0.05) | association with plasma membrane (profile plots) (HeLa cells [3]; representative cells) | association with the plasma membrane relative to tri-cTat B (HeLa cells [3]; t=1 to 15 min, p<0.05) | propidium iodide (PI) uptake / pore formation (HeLa cells [4]) | cellular uptake of Fab in the presence of the peptide (HeLa cells [5]; Fab-AF647, 30 min) | cellular uptake of IgG in the presence of the peptide (HeLa cells [5]; IgG-AF647, 45 min) | cellular uptake and intracellular distribution (HeLa cells [1]; 10 μM) | cellular uptake and intracellular distribution (CHO cells; 10 μM)
1 | N=C(N)NCCC[C@H](NC(=O)[C@H](CCCNC(=N)N)NC(=O)[C@H](CCCNC(=N)N)NC(=O)[C@H](CCC(N)=O)NC(=O)[C@H](CCCNC(=N)N)NC(=O)[C@H](CCCNC(=N)N)NC(=O)[C@H](CCCCN)NC(=O)[C@H](CCCCN)NC(=O)[C@H](CCCNC(=N)N)NC(=O)CCCc1cn(CC(Cn2cc(CCCC(=O)N[C@@H](CCCNC(=N)N)C(=O)N[C@@H](CCCCN)C(=O)N[C@@H](CCCCN)C(=O)N[C@@H](CCCNC(=N)N)C(=O)N[C@@H](CCCNC(=N)N)C(=O)N[C@@H](CCC(N)=O)C(=O)N[C@@H](CCCNC(=N)N)C(=O)N[C@@H](CCCNC(=N)N)C(=O)N[C@@H](CCCNC(=N)N)C(N)=O)nn2)(Cn2cc(CCCC(=O)N[C@@H](CCCNC(=N)N)C(=O)N[C@@H](CCCCN)C(=O)N[C@@H](CCCCN)C(=O)N[C@@H](CCCNC(=N)N)C(=O)N[C@@H](CCCNC(=N)N)C(=O)N[C@@H](CCC(N)=O)C(=O)N[C@@H](CCCNC(=N)N)C(=O)N[C@@H](CCCNC(=N)N)C(=O)N[C@@H](CCCNC(=N)N)C(N)=O)nn2)Cn2cc(CNC(=O)c3ccc4c(c3)C(=O)OC43c4ccc(N)c(S(=O)(=O)O)c4Oc4c3ccc(N)c4S(=O)(=O)O)nn2)nn1)C(N)=O (some centres unmarked) [tri-Tat A] | homogenous cytosolic uptake and nucleolar staining; also recorded: taken up into the cytosol and nucleoli | 84.4 | 80.2 | homogenous cytosolic uptake and nucleolar staining; also recorded: taken up into the cytosol and nucleoli | ~12 | 2 | initial strong association | approximately three | significantly higher; also recorded: co-stain with PI |  |  |  | 
2 | mono-Tat: monomeric control: linear Tat (49-57) peptide labelled with AF488 (RKKRRQRRR; also: AF488 label, place not given here; UniProt P04608 49-57, looked up, fragment) | not taken up |  |  | not taken up |  |  |  |  |  | no cellular uptake | no cellular uptake | no cytosolic uptake or nucleolar staining; also recorded: taken up only into endosomes | no cytosolic uptake or nucleolar staining; also recorded: taken up only into endosomes
3 | tri-Tat B: AF488-labelled trimer of linear Tat (49-57) peptide on alkyne functionalized scaffold B (RKKRRQRRR; also: trimer on alkyne functionalized scaffold B, AF488 label, place not given here; UniProt P04608 49-57, looked up, fragment) | no evidence of cytosolic uptake or nucleolar staining; also recorded: only taken up into endosomes |  |  | no evidence of cytosolic uptake or nucleolar staining; also recorded: only taken up into endosomes |  |  |  |  |  |  |  |  | 
